Measured values: patent publication US8686150B2 (Sanofi, priority 2011, dated 2014)

Biological target: T1, human full-length recombinant PKC βII (Homo sapiens, UniProt P05771)
T1 construct: Active human full-length recombinant PKC βII; purchased Invitrogen GmbH, Darmstadt, Germany
Experiment: Determination of PKC βII inhibition (Caliper mobility-shift kinase assay, Fluorescein-RFARKGSLRQKNV peptide substrate)
Assay type: biochemical
Details: example compounds at a final concentration of 1.14 μM (±0.15 μM)
Outline: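 Full-length PKC βII (30 ng/ml in pre-dilution) with PS/DAG/Ca2+ activators, pH 7.4; fluorescein peptide and ATP at 3 μM and 120 μM before mixing. Reaction ran 60 min at 32 °C, was EDTA-stopped, and was read by mobility shift. % inhibition came from product/(substrate+product) peak heights, tested at 1.14 μM final.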

T1 sequence (P05771 1-673 isoform P05771-2): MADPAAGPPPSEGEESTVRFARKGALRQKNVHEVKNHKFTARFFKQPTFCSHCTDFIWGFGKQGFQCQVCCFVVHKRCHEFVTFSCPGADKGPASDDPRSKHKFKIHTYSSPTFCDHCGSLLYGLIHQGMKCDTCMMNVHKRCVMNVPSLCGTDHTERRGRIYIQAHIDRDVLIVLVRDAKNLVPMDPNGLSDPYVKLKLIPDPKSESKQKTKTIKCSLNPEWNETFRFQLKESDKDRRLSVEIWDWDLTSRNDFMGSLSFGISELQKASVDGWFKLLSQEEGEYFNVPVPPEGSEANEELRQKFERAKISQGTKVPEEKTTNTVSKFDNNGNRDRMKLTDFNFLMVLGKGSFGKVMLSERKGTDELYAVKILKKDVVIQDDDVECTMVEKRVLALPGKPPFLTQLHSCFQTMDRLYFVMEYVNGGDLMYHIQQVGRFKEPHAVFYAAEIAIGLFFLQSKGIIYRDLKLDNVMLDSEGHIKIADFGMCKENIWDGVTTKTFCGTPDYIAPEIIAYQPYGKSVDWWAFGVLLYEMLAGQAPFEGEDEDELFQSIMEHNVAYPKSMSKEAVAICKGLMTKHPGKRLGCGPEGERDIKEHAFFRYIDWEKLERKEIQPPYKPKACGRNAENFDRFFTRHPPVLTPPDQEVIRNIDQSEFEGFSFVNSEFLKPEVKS

| SMILES | inhibition at 1.14 µM [%] |
| --- | --- |
| Cc1n[nH]c2nc(-c3ccc(O)cc3)cc(C(=O)NCC(c3ccccc3)N3CCNCC3)c12 (stereo not shown) [Example 393, 6-(4-Hydroxy-phenyl)-3-methyl-1H-pyrazolo[3,4-b]pyridine-4-carboxylic acid (2-phenyl-2-piperazin-1-yl-ethyl)-amide] | 55 |
| Cc1n[nH]c2nc(-c3ccc(O)cc3)cc(C(=O)NCC(c3ccccc3)N3CCOCC3)c12 (stereo not shown) [Example 394, 6-(4-Hydroxy-phenyl)-3-methyl-1H-pyrazolo[3,4-b]pyridine-4-carboxylic acid (2-morpholin-4-yl-2-phenyl-ethyl)-amide] | 23 |
| Cc1n[nH]c2nc(-c3ccc(O)cc3)cc(C(=O)NCCC3CCNCC3)c12 [Example 395, 6-(4-Hydroxy-phenyl)-3-methyl-1H-pyrazolo[3,4-b]pyridine-4-carboxylic acid (2-piperidin-4-yl-ethyl)-amide] | 42 |
| Cc1n[nH]c2nc(-c3ccc(O)cc3)cc(C(=O)NC3CCC(N(C)C)CC3)c12 (stereo not shown) [Example 396, 6-(4-Hydroxy-phenyl)-3-methyl-1H-pyrazolo[3,4-b]pyridine-4-carboxylic acid (4-dimethylamino-cyclohexyl)-amide] | 39 |
| C[C@H]1CN(C(=O)c2cc(-c3ccc(O)cc3)nc3[nH]nc(C(F)(F)F)c23)CCN1 [Example 397, [6-(4-Hydroxy-phenyl)-3-trifluoromethyl-1H-pyrazolo[3,4-b]pyridin-4-yl]-((S)-3-methyl-piperazin-1-yl)-methanone] | 73 |
| O=C(N[C@@H]1CCCNC1)c1cc(-c2ccc(O)cc2)nc2[nH]nc(C(F)(F)F)c12 [Example 398, 6-(4-Hydroxy-phenyl)-3-trifluoromethyl-1H-pyrazolo[3,4-b]pyridine-4-carboxylic acid (R)-piperidin-3-ylamide] | 21 |
| NC1CCN(C(=O)c2cc(-c3ccc(O)cc3)nc3[nH]nc(C(F)(F)F)c23)CC1 [Example 399, (4-Amino-piperidin-1-yl)-[6-(4-hydroxy-phenyl)-3-trifluoromethyl-1H-pyrazolo[3,4-b]pyridin-4-yl]-methanone] | 60 |
| O=C(c1cc(-c2ccc(O)cc2)nc2[nH]nc(C(F)(F)F)c12)N1CC2CNCC2C1 (stereo not shown) [Example 400, (Hexahydro-pyrrolo[3,4-c]pyrrol-2-yl)-[6-(4-hydroxy-phenyl)-3-trifluoromethyl-1H-pyrazolo[3,4-b]pyridin-4-yl]-methanone] | 62 |
| C[C@@H]1CN(C(=O)c2cc(-c3ccc(O)cc3)nc3[nH]nc(C(F)(F)F)c23)CCN1 [Example 401, [6-(4-Hydroxy-phenyl)-3-trifluoromethyl-1H-pyrazolo[3,4-b]pyridin-4-yl]-((R)-3-methyl-piperazin-1-yl)-methanone] | 71 |
| O=C(NC1CNC1)c1cc(-c2ccc(O)cc2)nc2[nH]nc(C(F)(F)F)c12 [Example 402, 6-(4-Hydroxy-phenyl)-3-trifluoromethyl-1H-pyrazolo[3,4-b]pyridine-4-carboxylic acid azetidin-3-ylamide] | 41 |
| O=C(c1cc(-c2ccc(O)cc2)nc2[nH]nc(C(F)(F)F)c12)N1CC2(CCNCC2)C1 [Example 403, (2,7-Diaza-spiro[3.5]non-2-yl)-[6-(4-hydroxy-phenyl)-3-trifluoromethyl-1H-pyrazolo[3,4-b]pyridin-4-yl]-methanone] | 55 |
| N[C@H]1CCN(C(=O)c2cc(-c3ccc(O)cc3)nc3[nH]nc(C(F)(F)F)c23)C1 [Example 404, ((S)-3-Amino-pyrrolidin-1-yl)-[6-(4-hydroxy-phenyl)-3-trifluoromethyl-1H-pyrazolo[3,4-b]pyridin-4-yl]-methanone] | 31 |
| O=C(c1cc(-c2ccc(O)cc2)nc2[nH]nc(C(F)(F)F)c12)N1CCC2(CC1)CNC2 [Example 405, (2,7-Diaza-spiro[3.5]non-7-yl)-[6-(4-hydroxy-phenyl)-3-trifluoromethyl-1H-pyrazolo[3,4-b]pyridin-4-yl]-methanone] | 48 |
| CNC1CCN(C(=O)c2cc(-c3ccc(O)cc3)nc3[nH]nc(C(F)(F)F)c23)C1 (stereo not shown) [Example 406, [6-(4-Hydroxy-phenyl)-3-trifluoromethyl-1H-pyrazolo[3,4-b]pyridin-4-yl]-(3-methylamino-pyrrolidin-1-yl)-methanone] | 47 |
| O=C(c1cc(-c2ccc(O)cc2)nc2[nH]nc(C(F)(F)F)c12)N1CCC2(CCCNC2)C1 (stereo not shown) [Example 407, (2,7-Diaza-spiro[4.5]dec-2-yl)-[6-(4-hydroxy-phenyl)-3-trifluoromethyl-1H-pyrazolo[3,4-b]pyridin-4-yl]-methanone] | 20 |
| O=C(c1cc(-c2ccc(O)cc2)nc2[nH]nc(C(F)(F)F)c12)N1CCC2CNCC21 (stereo not shown) [Example 408, (Hexahydro-pyrrolo[3,4-b]pyrrol-1-yl)-[6-(4-hydroxy-phenyl)-3-trifluoromethyl-1H-pyrazolo[3,4-b]pyridin-4-yl]-methanone] | 21 |
| O=C(c1cc(-c2ccc(O)cc2)nc2[nH]nc(C(F)(F)F)c12)N1CCC2(CCNCC2)C1 [Example 409, (2,8-Diaza-spiro[4.5]dec-2-yl)-[6-(4-hydroxy-phenyl)-3-trifluoromethyl-1H-pyrazolo[3,4-b]pyridin-4-yl]-methanone] | 23 |
| O=C(c1cc(-c2ccc(O)cc2)nc2[nH]nc(C(F)(F)F)c12)N1CCC2(CCNC2)CC1 [Example 410, (2,8-Diaza-spiro[4.5]dec-8-yl)-[6-(4-hydroxy-phenyl)-3-trifluoromethyl-1H-pyrazolo[3,4-b]pyridin-4-yl]-methanone] | 20 |
| O=C(N[C@@H]1CN2CCC1CC2)c1cc(-c2ccc(O)cc2)nc2[nH]nc(C(F)(F)F)c12 [Example 412, 6-(4-Hydroxy-phenyl)-3-trifluoromethyl-1H-pyrazolo[3,4-b]pyridine-4-carboxylic acid [(S)-1-aza-bicyclo[2.2.2]oct-3-yl]-amide] | 23 |
| O=C(N[C@H]1CN2CCC1CC2)c1cc(-c2ccc(O)cc2)nc2[nH]nc(C(F)(F)F)c12 [Example 413, 6-(4-Hydroxy-phenyl)-3-trifluoromethyl-1H-pyrazolo[3,4-b]pyridine-4-carboxylic acid [(R)-1-aza-bicyclo[2.2.2]oct-3-yl]-amide] | 29 |
| Cc1n[nH]c2nc(-c3ccc(O)cc3F)cc(C(=O)N3[C@@H]4CC[C@H]3CNC4)c12 [Example 417, 3,8-Diaza-bicyclo[3.2.1]oct-8-yl-[6-(2-fluoro-4-hydroxy-phenyl)-3-methyl-1H-pyrazolo[3,4-b]pyridin-4-yl]-methanone] | 78 |

Results, then the molecule that gave them:

| inhibition at 1.14 µM [%] | SMILES |
| --- | --- |
| 24 | O=C(c1cc(-c2ccc(O)cc2)nc2[nH]nc(C(F)(F)F)c12)N1CCC2(CCNCC2)CC1 [Example 411, (3,9-Diaza-spiro[5.5]undec-3-yl)-[6-(4-hydroxy-phenyl)-3-trifluoromethyl-1H-pyrazolo[3,4-b]pyridin-4-yl]-methanone] |
| 30 | CCN1CCCN(C(=O)c2cc(-c3ccc(O)cc3)nc3[nH]nc(C(F)(F)F)c23)CC1 [Example 414, (4-Ethyl-[1,4]diazepan-1-yl)-[6-(4-hydroxy-phenyl)-3-trifluoromethyl-1H-pyrazolo[3,4-b]pyridin-4-yl]-methanone] |
| 90 | Cc1n[nH]c2nc(-c3ccc(O)cc3F)cc(C(=O)N3CCC(N)(c4ccccc4)CC3)c12 [Example 415, (4-Amino-4-phenyl-piperidin-1-yl)-[6-(2-fluoro-4-hydroxy-phenyl)-3-methyl-1H-pyrazolo[3,4-b]pyridin-4-yl]-methanone] |
| 84 | CCC1(N)CCN(C(=O)c2cc(-c3ccc(O)cc3F)nc3[nH]nc(C)c23)CC1 [Example 416, (4-Amino-4-ethyl-piperidin-1-yl)-[6-(2-fluoro-4-hydroxy-phenyl)-3-methyl-1H-pyrazolo[3,4-b]pyridin-4-yl]-methanone] |
| 30 | Cc1n[nH]c2nc(-c3ccc(O)cc3F)cc(C(=O)N3CCC(C)(N)CC3)c12 [Example 418, (4-Amino-4-methyl-piperidin-1-yl)-[6-(2-fluoro-4-hydroxy-phenyl)-3-methyl-1H-pyrazolo[3,4-b]pyridin-4-yl]-methanone] |
| 79 | Cc1n[nH]c2nc(-c3ccc(O)cc3F)cc(C(=O)N3C[C@H]4CNC[C@H]4C3)c12 [Example 419, [6-(2-Fluoro-4-hydroxy-phenyl)-3-methyl-1H-pyrazolo[3,4-b]pyridin-4-yl]-(3aR,6aS)-hexahydro-pyrrolo[3,4-c]pyrrol-2-yl-methanone] |
| 80 | CCC[C@@H]1CN(C(=O)c2cc(-c3ccc(O)cc3F)nc3[nH]nc(C)c23)CCN1 [Example 420, [6-(2-Fluoro-4-hydroxy-phenyl)-3-methyl-1H-pyrazolo[3,4-b]pyridin-4-yl]-((R)-3-propyl-piperazin-1-yl)-methanone] |
| 51 | Cc1n[nH]c2nc(-c3ccc(O)cc3F)cc(C(=O)N3CCNC(c4ccccc4)C3)c12 (stereo not shown) [Example 421, [6-(2-Fluoro-4-hydroxy-phenyl)-3-methyl-1H-pyrazolo[3,4-b]pyridin-4-yl]-(3-phenyl-piperazin-1-yl)-methanone] |
| 95 | CCC[C@H]1CN(C(=O)c2cc(-c3ccc(O)cc3F)nc3[nH]nc(C)c23)CCN1 [Example 422, [6-(2-Fluoro-4-hydroxy-phenyl)-3-methyl-1H-pyrazolo[3,4-b]pyridin-4-yl]-((S)-3-propyl-piperazin-1-yl)-methanone] |
| 84 | Cc1n[nH]c2nc(-c3ccc(O)cc3F)cc(C(=O)N3CCNC(C4CC4)C3)c12 (stereo not shown) [Example 423, (3-Cyclopropyl-piperazin-1-yl)-[6-(2-fluoro-4-hydroxy-phenyl)-3-methyl-1H-pyrazolo[3,4-b]pyridin-4-yl]-methanone] |
